Values joined by “and” are separate entries in the source; they are usually repeats but may differ in a detail not shown here. Equal values may be shown once.
Tests used:
Assay type in all cases: cell-based, human
MOLT-3 cells = test: MTT cytotoxicity assay, MOLT-3; details: means ± SEM
Excerpt: (§1) U-937, HL-60, MOLT-3, NALM-6, and SK-MEL-1 cells were from DSMZ (German Collection of Microorganisms and Cell Cultures, Braunschweig, Germany). U-937/Bcl-2 cells were kindly provided by Dr. Jacqueline Bréard (INSERM U749, Faculté de Pharmacie Paris-Sud, Châtenay-Malabry, France). The U-937 is a pro-monocytic, human promyelocytic leukemia cell line that was isolated from a histiocytic lymphoma. HL-60 is a human acute myeloid leukemia cell line. MOLT-3 is a human acute lymphoblastic leukemia cell line. NALM-6 is a human B cell precursor leukemia. SK-MEL-1 is a human melanoma cell line growing singly or in clumps (occasional giant, polynucleated cell) in suspension. Cells were cultured in RPMI 1640 medium containing 10% (v/v) heat-inactivated fetal bovine serum, 100 μg/mL streptomycin, and 100 U/mL penicillin, incubated at 37 °C in a humidified atmosphere containing 5% CO2 as described. The doubling times of the cell lines were 24 h in HL-60, 30 h in U-937, U-937/Bcl-2, 40 h in MOLT-3 and NALM-6, and several days in SK-MEL-1 cells. Human peripheral blood mononuclear cells (PBMC) were isolated from heparin-anticoagulated blood of healthy volunteers by centrifugation with Ficoll-Paque Plus (GE Healthcare Bio-Sciences AB, Uppsala, Sweden). PBMC were also stimulated with phytohemagglutinin (2 µg/mL) for 48 h before the experimental treatment. The trypan blue exclusion method was used for counting the cells by a hemocytometer with 95% viability in all the experiments. Compounds were dissolved in dimethyl sulfoxide (DMSO) and kept under dark conditions at 25 °C. […] The cytotoxicity of the synthetic compounds was evaluated by colorimetric 3-(4,5-dimethyl-2-thiazolyl-)-2,5-diphenyl-2H-tetrazolium bromide (MTT) assay as previously described. Briefly, cells (5000 per well) were incubated with increasing concentrations of compounds for 72 h into a 96-well plate. Then, the supernatants were removed and 0.5 mg/mL MTT was added and incubated for 4 h at 37 °C. Sodium dodecyl sulfate (10% w/v) in 0.05 M HCl was added to solubilize the reaction products and the absorbance was measured at 570 nm with a reference wavelength of […] using an ELISA reader (Bio-Rad, Hercules, CA, USA). The IC50 values (concentrations inducing a 50% inhibition of cell viability) were determined graphically for each experiment by a nonlinear regression using the curve fitting routine implemented within the software Prism 5.0 (GraphPad, La Jolla, CA, USA).

U-937 cells = test: Western blot of PARP, caspases and cytosolic cytochrome c; details: 24 h; for full-length PARP protein (immunoblot): U-937, 10 µM; for mitochondrial cytochrome c release (cytosolic fraction, immunoblot): U-937, increasing concentrations
Procedure: For whole cell lysates, cells were harvested by centrifugation (500× g, 10 min, 4 °C), washed twice with PBS, and pellets were resuspended in lysis buffer (1% Triton X-100, 10 mM sodium fluoride, 2 mM EDTA, 20 mM Tris-HCl (pH 7.4), 2 mM tetrasodium pyrophosphate, 10% glycerol, 137 mM NaCl, and 20 mM sodium β-glycerophosphate), with the protease inhibitors phenylmethylsulfonyl fluoride (PMSF, 1 mM), aprotinin, leupeptin, and pepstatin A (5 μg/mL each) and kept on ice for 15 min. Cells were sonicated on ice 5 times (5 s each, with intervals between each sonication of 5 s) with a Braun Labsonic 2000 microtip sonifier and centrifuged (11,000× g, 10 min, 4 °C). For subcellular fractionation, cells were washed twice with PBS and then resuspended in ice-cold buffer (20 mM HEPES (pH 7.5), 250 mM sucrose, 10 mM KCl, 1.5 mM MgCl2, 1 mM EDTA, 1 mM EGTA, and 1 mM dithiothreitol containing protease inhibitors (0.1 mM PMSF and 1 µg/mL leupeptin, aprotinin, and pepstatin A)). After 15 min on ice, cells were lysed by pushing them several times through a 29-gauge needle, and the lysate was centrifuged at 1000× g for 5 min at 4 °C. The resulting supernatant fraction was centrifuged at 15,000× g for 20 min at 4 °C, and the resulting supernatant was used as the cytosolic fraction. The Bradford method was used to determine protein concentration. The samples loaded in sodium dodecyl sulfate-polyacrylamide gel (from 7.5 to 15% depending on the molecular weight of interest) were prepared with the same protein amount and boiled for 5 min. The proteins were transferred to poly(vinylidene difluoride) membranes for 20 h at 20 V. The membranes were blocked with 10% nonfat milk in Tris-buffered saline (50 mM Tris-HCl (pH 7.4), 150 mM NaCl) containing 0.1% Tween-20 (TBST) for 1 h, followed by incubation with specific antibodies against caspase-3, PARP, caspase-9, β-actin, tubulin, and cytochrome c overnight at 4 °C. Membranes were washed three times with TBST and incubated for 1 h with the specific secondary antibody and the antigen-antibodies complexes were visualized by enhanced chemiluminescence using the manufacturer’s protocol.

U-937 leukemia cells = test: Cell cycle and sub-G1 analysis by flow cytometry (propidium iodide); details: 24 h; for fold increase of sub-G1 cells over control / %G1 / %G2-M / %S / %Sub-G1: 10 µM; for fold increase of sub-G1 cells over control: U-937; for %G1 / %G2-M / %S / %Sub-G1: U-937, means ± S.E.; for cell cycle arrest: U-937, 10 µM
Procedure: Cells (2.5 × 10^5) were centrifuged for 10 min at 500× g, washed with cold PBS, fixed with ice-cold 75% ethanol and stored at −20 °C overnight. Samples were then centrifuged at 500× g for 10 min at 4 °C, washed with PBS, resuspended in 200 μL of PBS containing 100 μg/mL RNase and 50 μg/mL propidium iodide and incubated for 1 h in the dark. The DNA content was analyzed by flow cytometry with a BD FACSVerse^TM cytometer (BD Biosciences, San Jose, CA, USA). Apoptosis was also evaluated by flow cytometric analysis of double-staining annexin V-FITC and propidium iodide cells as previously described.

[1] = tested on: caspases-3/7, -8, and -9 in U-937 cells; test: Caspase activity in lysates of treated cells (colorimetric tetrapeptide substrates); details: U-937, 10 µM, 24 h
Procedure: Caspase activity was determined by measuring proteolytic cleavage of specific chromogenic substrates as previously described. Briefly, cells were treated with the specified guanidines for 24 h, harvested by centrifugation (1000× g for 5 min at 4 °C), washed twice with PBS, resuspended in lysis buffer (50 mM HEPES, pH 7.4, 0.1 mM EDTA, 1 mM dithiothreitol, and 0.1% Chaps), spun (17,000× g for 10 min at 4 °C) and the supernatants were normalized by protein concentration and used to determine enzyme activity. The net increase in absorbance at 405 nm after incubation at 37 °C was indicative of caspase activity. The colorimetric substrates were DEVD-pNA (for caspase-3 like protease activity), IETD-pNA (for caspase-8 activity), and LEHD-pNA (for caspase-9 activity).

NALM-6 cells = test: MTT cytotoxicity assay, NALM-6; details: 72 h, MTT, means ± SEM
Excerpt: as §1

SMILES	IC50 (MOLT-3 cells; Homo sapiens, MOLT-3, 72 h)	full-length PARP protein (immunoblot) (U-937 cells)	mitochondrial cytochrome c release (cytosolic fraction, immunoblot) (U-937 cells)	fold increase of sub-G1 cells over control (U-937 leukemia cells)	%G1 (U-937 leukemia cells)	%G2-M (U-937 leukemia cells)	%S (U-937 leukemia cells)	%Sub-G1 (U-937 leukemia cells)	cell cycle arrest (U-937 leukemia cells)	caspase-8 activation [1]	increase of caspase-3/7 and caspase-9 activities compared with control [1]	IC50 (NALM-6 cells; Homo sapiens, NALM-6, 72 h)	IC50 (MOLT-3 cells; 72 h)	IC50 (NALM-6 cells)
Cc1ccc(S(=O)(=O)NC(=Nc2ccc(/C=C/C(=O)c3c(O)cccc3OCc3ccccc3)cc2)N2CCN(C)CC2)cc1 [Compound 6f]	1.5 µM	dramatically decreased	concentration-dependent release	~ 10 fold	35.2 ± 3.8 %	10.8 ± 1.6%	28.3 ± 0.2%	25.1% and 25.1 ± 2.6 %	not caused by a significant cell cycle arrest in any phase	less activated	approximately three-fold	2.7 µM	–	–
O=C(/C=C/c1ccc(N=C(Nc2ccccc2)N2CCCCC2)cc1)c1c(O)cccc1OCc1ccccc1 [Compound 6i]	< 10 µM	dramatically decreased	concentration-dependent release	~ 13 fold	35.9 ± 2.1 %	8.4 ± 0.1 %	23.6 ± 2.4 %	31.6% and 31.6 ± 4.5 %	not caused by a significant cell cycle arrest in any phase	less activated	two-fold	~10 µM	7.1 ± 1.3 µM	10.8 ± 0.5 µM

Source: PMC9779571, “Guanidine Derivatives Containing the Chalcone Skeleton Are Potent Antiproliferative Compounds against Human Leukemia Cells” (International Journal of Molecular Sciences, 2022)
